Consider 19 molecules from US10934263B2, “Charged ion channel blockers and methods for use” (Nocion Therapeutics, Inc., priority 2019, dated 2021).

Usually IC50 stands for the concentration that gives 50% inhibition. What is called inhibition is the percentage by which the read-out fell short of the control.

SMILES strings stand for the structures. A value given as a limit tells only on which side of the number the result lay.

In data set [1] the target is T1, NaV1.7 (Homo sapiens, UniProt Q15858).
T1 construct: expressed in transfected cells; tetracycline-inducible, kept under hygromycin and blasticidin
The data set can be described thus: Automated patch clamp (Qube 384), internal block of NaV1.7 in HEK293 cells. The note with it: compound in internal solution, read-out: Nav1.7 Intracellular Inhibition (IC50). The data set is classed as cell-based. The protocol: (§1) NaV1.7 was expressed in HEK293 cells upon induction with tetracycline. Cells were cultured in DMEM containing 10% dialyzed Fetal Bovine Serum (VWR, Radnor, Pa.), 1% Glutamax (VWR, Radnor, Pa.), 1% Penicillin-Streptomycin (VWR, Radnor, Pa.), 100 mg/L Hygromycin (Thermo Fisher Scientific, Waltham, Mass. and 5 mg/L Blasticidin (Alfa Aesar, Haverhill, Mass.). Cells were grown and maintained at 37° C. in a humidified environment containing 10% CO2 in air. Cells were detached from the culture flask for passage and harvested using 0.05% Trypsin-EDTA (Thermo Fisher Scientific, Waltham, Mass.). To induce NaV1.7, cells were induced with tetracycline (0.1-1 μg/mL, IBI Scientific, Peosta, Iowa) the day before recording.
(§2) Before experiments, cells were washed with DPBS (VWR, Radnor, Pa.), digested with Detachin (VWR Radnor, Pa.) and then triturated 10 times in CHO Serum-Free Media (VWR Radnor, Pa.) to resuspend the cells and to break apart cell aggregates. Cells were counted and the final concentration was set at 2-5 million cells per mL.
(§3) The intracellular solution contained the following: 140 mM CsF, 1 mM/5 mM EGTA/CsOH, 10 mM HEPES, 10 mM NaCl, adjusted to pH 7.3 with CsOH, and osmolality to 320 with sucrose. The external solution contained the following: 145 mM NaCl, 4 mM KCl, 1 mM MgCl2, 2 mM CaCl2, 10 mM HEPES, 10 mM Glucose, adjusted to pH 7.4 with CsOH and osmolality to 305 with sucrose. All chemicals are from Sigma-Aldrich, St. Louis, Mo. In order to test the degree of internal block by test compounds, the compounds were dissolved in internal solution at the indicated test concentration. […] In order to test the degree of external block by test compounds the compounds were dissolved in external solution at the indicated test concentration.
(§4) Automated Patch Clamps were performed on Qube 384 (Sophion Bioscience, Woburn Mass.) with multihole Qchips at a temperature setting of 22 degrees. The whole cells configuration was formed with default Qube seal and break-in parameter. The membrane potential was held at −100 mV before the voltage protocol began. Two voltage protocols were followed.
(§5) Step 1: Cells were held at −100 mV with a depolarized pulse to −20 mV for 10 ms, the interval was set at 5 s. Currents were corrected by default leak subtraction from every pulse. The duration was set at 5 mins.
(§6) Step 2: Cells were held at −100 mV with a depolarized pulse to −20 mV for 10 ms. The frequency was 5 Hz. Currents were corrected by leak subtraction calculated before step 2. The duration was set at 4 mins.
After Step 2, the Qchip was removed from the recording chamber. The internal solution was changed with solutions containing test compounds. Qchips were held at −100 mV without pulsing after being replaced in the recording chamber. The total solution switching time was 8 minutes. After the internal solution exchange, Cells were recorded and step 2 for repeated for 10 minutes.
Data analysis was performed by Sophion Analyzer. Cells were filtered with minimum 50 MOhm seal resistance and minimum 5 nA starting current. The rundown of the currents was corrected with control cells (Non-Drug). The remaining was calculated by averaging last 3 points in the end of experiments. The base line was calculated as the average of last 3 points of Step 2. IC50 curves were plotted with DR-plots/Hill function (a dose-response plot with a Hill fit). Data analysis was performed by Sophion Analyzer.
On the technique in general: In patch-clamp work, channel activity is measured electrically.

The nature of data set [2]: PAMPA membrane permeability assay. The format is in vitro ADME. As to conditions: PAMPA permeability coefficient, GIT lipid, buffer pH 7.4, 4 hours incubation. How it is done: The PAMPA assay (pION, Inc., Woburn Mass.) was used to determine the ability of compounds of the invention to cross an artificial lipid membrane by passive diffusion. Test compounds were dissolved in DMSO (10 mM) and diluted 200-fold in buffer (pION Inc., pH 7.4) to provide 50 uM stock solutions. Buffer (150 μL) was added to a UV blank plate and stock solutions (150 μL) were transferred to a UV reference plate. The blank and reference spectrum were read using a spectrophotometer. Stock solutions (200 μL) were added to the donor plate of the PAMPA sandwich plate and an accept plate painted with GIT lipid (pION Inc, 5 μL) was placed on top. Buffer (200 μL) was added to the acceptor plate and the PAMPA sandwich plate was incubated for 4 hours. Aliquots (150 μL) from the acceptor plate were added to a UV plate and read as acceptor spectrum. Aliquots (150 μL) of the donor solutions were added to a UV analysis plate and read as donor spectrum. The permeability coefficient of test compounds was calculated using PAMPA Explorer™ software (version 3.5.0.4) based on the AUC of the reference plate, the donor plate, and the acceptor plate.
In general terms: The PAMPA barrier holds no transporters, so it reflects passive diffusion.

Data set [3] concerns the target T1, NaV1.7. The data set can be described thus: Whole cell patch clamp, internal block of NaV1.7 current (compound in internal solution). The format is cell-based. The note with it: compound applied internally, manual patch clamp, read-out: Nav1.7 Intracellular Inhibition. The protocol:
Representative compounds of the invention were synthesized according to the described methods and tested for the ability to inhibit voltage-gated sodium channels.
as §1, with “expressed” for “expressed in HEK293 cells”, “recording and plated onto 24-well plates. Cells were washed with DPBS (VWR, Radnor, Pa.), trypsinized and then triturated five times in 10 mL of growth media to break apart cell aggregates. For one 24-well plate, 2 mL of cell suspension was mixed with 23 mL of fresh growth media and 0.1-1 μg/mL tetracycline added. 1 ml of mixed media with cells was then added to each well of a 24-well plate, with a 12 mm coverslip already placed in the bottom of the well. Cells were then incubated in 37° C. and 10% CO2 overnight.” for “recording.”
The intracellular solution contained the following (in mM) CsCl 135, NaCl 10, EGTA 10, HEPES 10, MgCl2 2, adjusted to pH 7.2 with CsOH. The external solution was a normal Ringer solution containing (in mM) NaCl 155, HEPES 10, glucose 10, KCl 3.5, CaCl2 1.5, MgCl2 1 adjusted to pH 7.4 with NaOH. CsCl is from Alfa Aesar, Haverhill, Mass. All other chemicals are from Sigma-Aldrich, St. Louis, Mo. In order to test the degree of internal block by test compounds the compounds were dissolved in internal solution at the indicated test concentration. […] In order to test the degree of external block by test compounds the compounds were dissolved in external solution at the indicated test concentration.
18-24 hours after cells were induced with tetracycline, coverslips were placed into a chamber filled with Normal Ringer solution at room temperature and the chamber placed on a microscope. Pipettes were pulled from borosilicate glass on a P97 puller (Sutter Instrument, Novato, Calif.) and polished with a MF-830 Microforge (Narishige International USA, Inc, Amityville, N.Y.) to have a resistance of 1.5-2.5 MΩ when filled with CsCl internal solution at room temperature. Healthy cells (those that are round and translucent with no visible blemishes) were chosen for seal formation. A seal was formed between the pipette and the cell, and a brief pulse of suction was used to “break in” and establish the whole-cell configuration. The membrane potential was held at −100 mV before the voltage protocol began. Only cells with series resistance between 1.5-5 MΩ were retained for analysis. The voltage protocol was as follows: Cells were held at −100 mV for 12 ms followed by a hyperpolarizing step to −105 mV for 12 ms to monitor the leak. Cells were then stepped back to −100 mV for 40 ms. Cells were then depolarized to −20 mV for 10 ms and then returned to −100 mV for 26 ms.
Once the recording was started, the voltage protocol was run at 30 second intervals for 5 minutes to get a stable baseline. This was followed by four 30-second periods of 5 Hz stimulation of the same voltage protocol separated by 1 minute of rest which was then followed by 0.33 Hz stimulation after the last train. Currents were recorded using PatchMaster software with Heka EPC10 (HEKA Electronics, Lambrecht, Germany). Only cells with inward current amplitudes at −20 mV between 400 pA and 4 nA were accepted. In addition, cells having leak currents greater than 10% of their current amplitudes were discarded. […]

The target in data set [4] is T1, NaV1.7. The data set can be described thus: Automated patch clamp (Qube 384), external block of NaV1.7 in HEK293 cells. The format is cell-based. The note with it: compound in external solution, read-out: Nav1.7 Extracellular Inhibition (IC50). The protocol:
as §1, §2, §3, §4, §5, §6
After Step 2, the external solution was changed with solutions containing test compounds. Qchips were held at −100 mV without pulsing. The total solution switching time was 8 minutes. After the external solution exchange, cells were recorded using the same procedure as step 2 for 10 minutes.
Data analysis was performed by Sophion Analyzer. Data were corrected with control cells (Non-Drug). The IC50 data were plotted with DR-plots/Hill function (a dose-response plot with a Hill fit).

T1 sequence (Q15858 whole entry): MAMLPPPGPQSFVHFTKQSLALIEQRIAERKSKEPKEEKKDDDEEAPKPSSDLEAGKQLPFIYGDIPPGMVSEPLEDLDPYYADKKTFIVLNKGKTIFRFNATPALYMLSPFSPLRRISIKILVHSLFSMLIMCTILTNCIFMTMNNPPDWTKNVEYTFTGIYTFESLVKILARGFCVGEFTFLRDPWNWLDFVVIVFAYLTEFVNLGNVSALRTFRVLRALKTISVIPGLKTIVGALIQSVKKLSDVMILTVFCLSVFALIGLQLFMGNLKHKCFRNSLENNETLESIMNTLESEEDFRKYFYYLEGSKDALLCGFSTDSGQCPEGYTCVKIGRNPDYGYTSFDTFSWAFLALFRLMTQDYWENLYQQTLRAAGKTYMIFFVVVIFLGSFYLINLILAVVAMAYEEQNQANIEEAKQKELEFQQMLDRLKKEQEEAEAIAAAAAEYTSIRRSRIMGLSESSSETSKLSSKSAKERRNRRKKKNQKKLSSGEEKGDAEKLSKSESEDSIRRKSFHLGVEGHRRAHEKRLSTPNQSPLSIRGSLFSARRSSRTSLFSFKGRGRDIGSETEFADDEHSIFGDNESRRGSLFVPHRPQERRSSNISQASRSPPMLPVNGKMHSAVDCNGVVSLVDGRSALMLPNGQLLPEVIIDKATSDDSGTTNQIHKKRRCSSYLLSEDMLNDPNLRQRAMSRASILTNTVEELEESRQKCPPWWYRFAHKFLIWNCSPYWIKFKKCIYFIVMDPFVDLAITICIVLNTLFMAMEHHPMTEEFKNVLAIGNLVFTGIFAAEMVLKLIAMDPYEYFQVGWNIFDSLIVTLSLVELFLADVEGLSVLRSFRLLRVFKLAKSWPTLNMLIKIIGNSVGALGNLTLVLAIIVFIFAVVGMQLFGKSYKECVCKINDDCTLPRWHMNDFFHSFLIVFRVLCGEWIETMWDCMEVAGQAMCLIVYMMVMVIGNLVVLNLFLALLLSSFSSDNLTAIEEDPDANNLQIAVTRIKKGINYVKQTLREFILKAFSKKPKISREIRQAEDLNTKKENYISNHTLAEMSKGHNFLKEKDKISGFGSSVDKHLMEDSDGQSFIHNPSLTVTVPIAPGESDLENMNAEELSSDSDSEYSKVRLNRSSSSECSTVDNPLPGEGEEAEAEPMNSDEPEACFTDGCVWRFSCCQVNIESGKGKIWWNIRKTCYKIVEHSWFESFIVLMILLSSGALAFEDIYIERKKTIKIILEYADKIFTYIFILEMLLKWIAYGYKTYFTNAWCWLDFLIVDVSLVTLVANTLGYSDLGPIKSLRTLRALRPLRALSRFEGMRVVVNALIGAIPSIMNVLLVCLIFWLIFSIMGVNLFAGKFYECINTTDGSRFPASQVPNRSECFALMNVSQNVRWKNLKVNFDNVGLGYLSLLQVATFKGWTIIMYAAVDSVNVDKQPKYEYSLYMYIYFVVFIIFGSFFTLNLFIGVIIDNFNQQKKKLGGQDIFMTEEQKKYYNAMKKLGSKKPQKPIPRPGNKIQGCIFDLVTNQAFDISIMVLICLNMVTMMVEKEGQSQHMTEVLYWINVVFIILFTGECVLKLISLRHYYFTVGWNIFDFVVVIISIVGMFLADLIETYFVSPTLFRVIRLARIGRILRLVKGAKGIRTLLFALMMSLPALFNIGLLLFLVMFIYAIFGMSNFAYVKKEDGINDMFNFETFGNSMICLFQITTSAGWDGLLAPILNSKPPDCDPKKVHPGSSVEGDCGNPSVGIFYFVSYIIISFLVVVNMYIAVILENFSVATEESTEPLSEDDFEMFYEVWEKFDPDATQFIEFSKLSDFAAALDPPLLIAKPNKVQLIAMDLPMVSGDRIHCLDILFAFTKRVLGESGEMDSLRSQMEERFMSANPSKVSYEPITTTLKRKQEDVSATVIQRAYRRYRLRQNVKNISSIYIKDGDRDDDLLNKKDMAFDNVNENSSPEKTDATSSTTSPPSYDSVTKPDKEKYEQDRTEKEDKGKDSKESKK

For `Cc1cccc(C)c1NC(=O)Cn1cc[n+](CC(=O)Nc2c(C)cccc2C)c1` [Compound 110], in data set [1], the IC50 lay in the range of 10 to 30 µM. Further, the “PAMPA (10^−6 cm/s)” value in data set [2] was “++ (0.1-2.0 10^−6 cm/s)”. Also, the inhibition at 10 µM in data set [3] fell in the range of 70 to 95%.
With `Cc1cccc(C)c1NC(=O)C[n+]1cccc(C2CC2)c1` [Compound 22], the IC50 fell in the range of 3 to 10 µM in data set [1] and 30 to 100 µM in data set [4].
Regarding `Cc1cccc(C)c1NC(=O)C[n+]1c(C)ccc(-c2ccccc2)c1C` [Compound 23], the IC50 in data set [1] is under 1 µM; in data set [4], under 10 µM.
For `Cc1cccc(C)c1NC(=O)C[n+]1cc(-c2ccccc2)n(C)c1` [Compound 24] the same measures were 3 to 10 µM and over 100 µM.
For `Cc1cccc(C)c1NC(=O)C[n+]1cccc(-c2ccccc2)c1` [Compound 12] the same measures were 1 to 3 µM and 10 to 30 µM.
The like results for `CCNC(=O)Cn1ccc[n+]1CC(=O)Nc1c(C)cccc1C` [Compound 30] were, in that order, 1 to 3 µM and over 100 µM.
As to `Cc1cccc(C)c1NC(=O)C[n+]1cccc(-c2nn[nH]n2)c1` [Compound 53], the IC50 in data set [1] lay in the range of 10 to 30 µM. Besides, the “PAMPA (10^−6 cm/s)” value in data set [2] is “+ (<0.1 10^−6 cm/s)”. In addition, the inhibition at 10 µM in data set [3] was under 40%.
Turning to `Cc1cccc(C)c1NC(=O)C[n+]1cc(CO)n(C(C)C)c1` [Compound 59], the IC50 in data set [1] lay within 10 to 30 µM. Besides, in data set [2], the “PAMPA (10^−6 cm/s)” value is “++ (0.1-2.0 10^−6 cm/s)”. In data set [3], the inhibition at 10 µM was 70 to 95%.
For `Cc1cccc(C)c1NC(=O)C[n+]1cccn1-c1ccccc1` [Compound 29], the IC50 in data set [1] is 3 to 10 µM; in data set [4] it was over 100 µM.
The like results for `Cc1cccc(C)c1NC(=O)C[n+]1ccccc1-c1ccccc1` [Compound 16] were, in that order, 1 to 3 µM and over 100 µM.
Regarding `CCC(C(=O)Nc1c(C)cccc1C)[n+]1ccccc1.[Br-]` (stereo not shown) [Compound 3A, 1-(1-((2,6-dimethylphenyl)amino)-1-oxobutan-2-yl)pyridin-1-ium bromide], in data set [2], the “PAMPA (10^−6 cm/s)” value is recorded as “++ (0.1-2.0 10^−6 cm/s)”. Also, the inhibition at 32 µM in data set [3] was 70 to 95%.
`Cc1cccc(C)c1NC(=O)C[n+]1cc(-c2ccccc2)c2ccccc2c1` [Compound 100]: the half-inhibitory concentration (IC50) in data set [1] is 1 to 3 µM; in data set [4], under 10 µM.
Take `Cc1cccc(C)c1NC(=O)C[n+]1ccn(C)c1.[Br-]` [Compound 2A, 3-(2-((2,6-dimethylphenyl)amino)-2-oxoethyl)-1-methyl-1H-imidazol-3-ium bromide]: in data set [2], the “PAMPA (10^−6 cm/s)” value was “+ (<0.1 10^−6 cm/s)”. Further, in data set [3], the inhibition at 32 µM fell in the range of 40 to 70%.
As for `Cc1cccc(C)c1NC(=O)C[n+]1cccc2ccccc21.[Br-]` [Compound 18A], in data set [2], the “PAMPA (10^−6 cm/s)” value was “+ (<0.1 10^−6 cm/s)”. For the same molecule, in data set [3], the inhibition at 32 µM is over 95%.
`Cc1cccc(C)c1NC(=O)C[n+]1ccn(C(C)C)c1` [Compound 58]: the “PAMPA (10^−6 cm/s)” value in data set [2] was “+ (<0.1 10^−6 cm/s)”. In addition, in data set [3], the inhibition at 10 µM lay within 40 to 70%.
Regarding `Cc1cccc(C)c1NC(=O)C[n+]1cccc(C(=O)OC2CCCC2)c1` [Compound 105], in data set [1], the IC50 lay within 1 to 3 µM.
Regarding `Cc1cccc(C)c1NC(=O)C[n+]1cccc(C2CCCC2)c1.[Br-]` [Compound 21A], in data set [2], the “PAMPA (10^−6 cm/s)” value was “+ (<0.1 10^−6 cm/s)”. Further, the inhibition at 32 µM in data set [3] was over 95%.
For the molecule `CCNC(=O)Cn1cc[n+](CC(=O)Nc2c(C)cccc2C)c1` [Compound 62], the “PAMPA (10^−6 cm/s)” value in data set [2] is “+ (<0.1 10^−6 cm/s)”. In addition, the inhibition at 10 µM in data set [3] is under 40%.
On to `Cc1cc(C#N)cc(C)c1NC(=O)C[n+]1ccccc1.[Br-]` [Compound 11A, 1-(2-((4-cyano-2,6-dimethylphenyl)amino)-2-oxoethyl) pyridin-1-ium bromide], for which the “PAMPA (10^−6 cm/s)” value in data set [2] was “+ (<0.1 10^−6 cm/s)”. Besides, the inhibition at 32 µM in data set [3] is under 40%.
